Reference: ChEMBL document CHEMBL3526034 (Drug Metab Dispos, 2013)

Key:
Assay type in all cases: ADME
[1] = target: T1, Cytochrome P450 2C8 (Homo sapiens, UniProt P10632); test: Metabolism-dependent inhibition of CYP2C8 in human liver microsomes using rosiglitazone as substrate preincubated for 20 mins with NADPH prior to initiation of reaction with probe substrate by HPLC analysis
T1 sequence (P10632 whole entry): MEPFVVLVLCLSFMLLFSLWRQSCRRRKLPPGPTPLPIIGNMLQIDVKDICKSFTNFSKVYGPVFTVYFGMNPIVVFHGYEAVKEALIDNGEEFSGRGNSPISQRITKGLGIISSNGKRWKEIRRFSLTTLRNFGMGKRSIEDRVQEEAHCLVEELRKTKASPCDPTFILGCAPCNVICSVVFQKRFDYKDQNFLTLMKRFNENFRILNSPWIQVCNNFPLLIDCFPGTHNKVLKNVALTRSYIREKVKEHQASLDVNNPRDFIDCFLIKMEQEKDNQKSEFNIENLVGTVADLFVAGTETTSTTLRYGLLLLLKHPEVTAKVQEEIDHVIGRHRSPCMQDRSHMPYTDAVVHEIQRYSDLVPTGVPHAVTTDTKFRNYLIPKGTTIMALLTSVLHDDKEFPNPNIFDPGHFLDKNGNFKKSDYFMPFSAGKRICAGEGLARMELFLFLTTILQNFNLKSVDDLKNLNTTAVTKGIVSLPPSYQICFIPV

[2] = target: UDP-glucuronosyltransferase 1A4 (Homo sapiens, UniProt P22310); test: (§1) Drug metabolism assessed as UDPGA-fortified human recombinant UGT1A4-mediated DTG glucuronide metabolite ((2S,3S,4S,5R,6S)-6-((4R,12aS)-9-(2,4-difluorobenzylcarbamoyl)-4-methyl-6,8-dioxo-3,4,6,8,12,12a-hexahydro-2H-[1,3]oxazino[3,2-d]pyrido[1,2-a]pyrazin-7-yloxy)-3,4,5-trihydroxytetrahydro-2H-pyran-2-carboxylic acid) formation at 16 uM after 120 mins by radio-HPLC analysis; conditions: recombinant enzyme
Chain of UDP-glucuronosyltransferase 1A4 (P22310 whole entry): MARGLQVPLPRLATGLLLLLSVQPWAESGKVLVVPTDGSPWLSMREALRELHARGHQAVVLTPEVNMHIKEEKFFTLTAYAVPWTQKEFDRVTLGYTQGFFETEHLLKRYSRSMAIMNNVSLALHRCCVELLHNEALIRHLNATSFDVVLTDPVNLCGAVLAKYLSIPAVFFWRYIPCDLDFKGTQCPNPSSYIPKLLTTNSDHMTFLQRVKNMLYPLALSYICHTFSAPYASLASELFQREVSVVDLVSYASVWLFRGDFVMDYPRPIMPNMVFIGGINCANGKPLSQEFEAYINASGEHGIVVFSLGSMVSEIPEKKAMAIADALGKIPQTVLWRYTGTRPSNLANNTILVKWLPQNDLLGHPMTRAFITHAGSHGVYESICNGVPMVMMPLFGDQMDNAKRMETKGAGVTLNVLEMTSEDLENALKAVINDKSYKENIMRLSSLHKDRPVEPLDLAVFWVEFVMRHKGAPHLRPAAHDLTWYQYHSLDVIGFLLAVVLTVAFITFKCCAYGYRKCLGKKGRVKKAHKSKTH

[3] = target: Cytochrome P450 2C19 (Homo sapiens, UniProt P33261); test: Drug metabolism in supersomes expressing human recombinant CYP2C19 assessed as NADPH-fortified enzyme-mediated metabolite formation at 5 uM after 120 mins by radio HPLC analysis; conditions: 2 h
Chain of Cytochrome P450 2C19 (P33261 whole entry): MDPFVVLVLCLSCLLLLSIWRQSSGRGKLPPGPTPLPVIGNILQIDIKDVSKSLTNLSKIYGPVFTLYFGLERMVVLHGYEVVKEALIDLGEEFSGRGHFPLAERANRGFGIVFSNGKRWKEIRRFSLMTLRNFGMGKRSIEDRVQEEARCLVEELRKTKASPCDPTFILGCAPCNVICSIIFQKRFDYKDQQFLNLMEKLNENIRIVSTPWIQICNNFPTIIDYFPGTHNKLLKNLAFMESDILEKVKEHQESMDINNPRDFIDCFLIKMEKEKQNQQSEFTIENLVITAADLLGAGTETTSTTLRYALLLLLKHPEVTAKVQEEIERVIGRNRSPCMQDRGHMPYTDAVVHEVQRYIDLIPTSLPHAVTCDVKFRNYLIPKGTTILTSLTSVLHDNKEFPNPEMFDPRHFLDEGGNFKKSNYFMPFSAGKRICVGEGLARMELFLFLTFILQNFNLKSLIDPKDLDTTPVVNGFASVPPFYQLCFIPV

[4] = target: UDP-glucuronosyltransferase 1A3 (Homo sapiens, UniProt P35503); test: as §1, with “UGT1A3-mediated” for “UGT1A4-mediated”; conditions: recombinant enzyme
Chain of UDP-glucuronosyltransferase 1A3 (P35503 whole entry): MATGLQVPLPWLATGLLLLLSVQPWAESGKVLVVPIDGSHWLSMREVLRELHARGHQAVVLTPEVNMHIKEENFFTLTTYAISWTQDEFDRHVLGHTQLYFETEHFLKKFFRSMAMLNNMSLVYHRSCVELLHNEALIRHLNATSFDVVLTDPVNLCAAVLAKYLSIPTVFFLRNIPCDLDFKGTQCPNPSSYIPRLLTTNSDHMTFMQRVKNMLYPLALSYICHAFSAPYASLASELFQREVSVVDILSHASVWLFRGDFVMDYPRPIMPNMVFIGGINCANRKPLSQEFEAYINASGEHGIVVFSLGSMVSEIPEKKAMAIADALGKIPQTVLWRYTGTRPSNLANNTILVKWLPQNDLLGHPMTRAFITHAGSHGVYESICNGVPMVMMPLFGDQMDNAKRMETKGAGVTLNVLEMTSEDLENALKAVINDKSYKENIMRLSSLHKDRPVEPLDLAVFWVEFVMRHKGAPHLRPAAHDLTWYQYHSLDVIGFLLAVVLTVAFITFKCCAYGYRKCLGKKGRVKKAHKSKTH

C[C@@H]1CCO[C@H]2Cn3cc(C(=O)NCc4ccc(F)cc4F)c(=O)c(O)c3C(=O)N12 [DOLUTEGRAVIR] was tested, and the IC50 [1] was over 100 µM, the Drug metabolism [2] was “metabolite_not_detected” and the Drug metabolism [3] was “metabolite_not_detected”. For the same compound, the Drug metabolism [4] was “metabolite_detected”.
